{"source": "patent US8628961B2", "about": "“Small molecule antagonists of phosphatidylinositol-3,4,5-triphosphate (PIP3) and uses thereof” (Tufts University, priority 2010, dated 2014)", "test_system": "Bax/Bak double knockout cells", "experiment": "Cell killing in Bax/Bak double knockout versus wild-type cells", "assay_type": "cell-based, mouse", "experimental": "Human and mouse cancer cell lines (U87MG, SUM159, A549, MDA-MB-231, 4T1, B16-F10) and human umbilical vein endothelial cells (HUVEC) were purchased from the American Type Culture Collection (Rockville, Md., USA). Mouse adult lung fibroblasts (Akt-deficient and Akt1-expressing) were a generous gift of Dr. Philip Tsichlis (Tufts University). Maroulakou I et al. (2007) Cancer Res 67:167-77. Bax/Bak double knockout mouse embryonic fibroblasts (Wei M C et al. (2001) Science 292:727-30) and matched wild-type cells were a generous gift of Dr. Stanley Korsmeyer (Dana-Farber Cancer Center). B16-F10, U87MG, 4T1, A549, MDA-MB-231 and fibroblast cells were cultured in DMEM medium with 10% fetal bovine serum (FBS). SUM159 was maintained in Ham's F-12 medium with 5% FBS, 5 μg/ml insulin, and 1 μg/ml hydrocortisone. HUVEC cells were cultured in M199 medium with 20% FBS, 20 μg/ml ECGS, and 50 μg/ml heparin. All media were supplemented with 100 units/ml penicillin, 100 μg/ml streptomycin, and 2 mM glutamine. All cells were cultured in a humidified atmosphere of 95% air and 5% CO2 at 37° C.\nSince PI3K/PIP3/Akt signaling plays a critical role in the inhibition of apoptosis (Datta S R et al. (1999) Genes Dev 13:2905-27), the possibility that PITs induce apoptosis was examined. […] Proapoptotic Bcl-2 family members Bax and Bak are important mediators of apoptosis. Wei M C et al. (2001) Science 292:727-30. […]", "data": [{"smiles": "O=C(NC(=S)Nc1cc([N+](=O)[O-])cc(Cl)c1O)c1ccccc1", "note": "[PIT-1]", "values": [{"measurement": "killing of Bax/Bak double knockout compared with wild-type cells", "value": "reduced in Bax/Bak double knockout cells"}]}]}
